The IC50 is the point on the concentration scale where inhibition reaches its midpoint. Broadly, the Ki is a dissociation constant, usually derived from enzyme kinetics or from competition with a known ligand.

Experimental findings from patent US20240132514A1, “PYRIDINE DERIVATIVES AS MODULATORS OF SORTILIN ACTIVITY” (Insusense ApS, priority 2021, published 2024) are described below.

The structures appear in SMILES notation. Where two headings read alike, the source gives them in different places.

In the experiment the target is human full length sortilin (Homo sapiens (Human), UniProt Q99523). The experiment can be described thus: Human sortilin neurotensin scintillation proximity (SPA) binding assay. To be noted: for IC50: 150 nM His-tagged human full length sortilin, SPA. As for the experimental part: NTS, which is a 13 amino acid neuropeptide, is a sortilin ligand. The IC50 is a measure of the amount of the compound required to inhibit the binding of NTS to sortilin by 50%. The skilled person will recognise that the lower the IC50 value, the less of the compound needed to achieve the desired effect, and as a result, the chances of undesirable off-target effects are reduced.
Chain of human full length sortilin (Q99523 78-755): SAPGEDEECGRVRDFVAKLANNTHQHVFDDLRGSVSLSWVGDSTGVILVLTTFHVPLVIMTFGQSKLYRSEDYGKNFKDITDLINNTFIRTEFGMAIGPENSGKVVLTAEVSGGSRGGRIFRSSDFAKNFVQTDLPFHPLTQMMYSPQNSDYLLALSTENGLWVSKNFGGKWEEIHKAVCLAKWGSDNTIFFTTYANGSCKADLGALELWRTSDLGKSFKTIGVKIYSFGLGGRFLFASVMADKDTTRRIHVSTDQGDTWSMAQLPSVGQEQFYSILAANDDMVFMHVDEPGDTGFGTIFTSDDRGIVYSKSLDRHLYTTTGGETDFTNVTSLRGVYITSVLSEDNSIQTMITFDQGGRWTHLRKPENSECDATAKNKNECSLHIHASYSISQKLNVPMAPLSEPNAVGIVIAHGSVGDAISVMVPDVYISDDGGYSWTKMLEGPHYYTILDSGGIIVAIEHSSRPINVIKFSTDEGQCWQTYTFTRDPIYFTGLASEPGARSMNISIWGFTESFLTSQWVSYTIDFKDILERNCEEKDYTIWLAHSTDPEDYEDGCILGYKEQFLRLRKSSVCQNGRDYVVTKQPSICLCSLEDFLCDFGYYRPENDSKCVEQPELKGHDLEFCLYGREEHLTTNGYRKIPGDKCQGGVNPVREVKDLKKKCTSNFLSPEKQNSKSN
The compound affinity was determined by measuring the inhibition of ^3H-neurotensin and/or ^125I-neurotensin binding to human full length sortilin using a Scintillation Proximity Assay (SPA) format.
The human sortilin SPA binding assay was performed in a total volume of 40 μl in 50 mM HEPES pH 7.4 assay buffer containing 100 mM NaCl, 2.0 mM CaCl2, 0.1% (v:v) BSA and 0.1% (v:v)Tween-20. Varying concentration of test compounds where pre-incubated for 30 min at RT with 150 nM of c-terminal hexahistidine- human full length Sortilin (RD Systems). […] 0.1 mg PVT copper HIS-tag imaging beads (Perkin Elmer) was added and the plate was agitated at 400 rpm in the dark for 1 hr. The SPA beads were allowed a minimum 2 hours settling time before the plate was read on a Hidex Sense 425-301 scintillation reader with a 45 sec exposure time. Concentration-response evaluation of test compounds was performed with 8 different concentrations of compound (covering 3 decades). […] The compound potency results were converted to inhibition constant Ki values (nM) derived from calculated IC50 values converted to Ki values using the Cheng-Prusoff equation (Ki=IC50/(I+(L/Kd))).
A general note: Scintillation proximity formats need no separation of bound from free tracer.

Setting [1] is: 5 nM [3H]-Neurotensin radioligand, read-out: hSortilin NTS Binding IC50 (nM) [3H] neurotensin.

`O=C(O)c1cc(C(F)(F)F)ccc1C(=O)Nc1cccc(CO)n1` [Example 3, 2-{[6-(hydroxymethyl)pyridin-2-yl]carbamoyl}-5-(trifluoromethyl)benzoic acid]: the IC50 under setting [1] stood at 340 nM. In addition, where the note is “derived from IC50 using the Cheng-Prusoff equation, Kd of neurotensin […], read-out: hSortilin Ki”, the Ki was found to be 340 nM. Regarding `COCc1cccc(NC(=O)c2ccc(C(F)(F)F)cc2C(=O)O)n1` [Example 24, 2-{[6-(methoxymethyl)pyridin-2-yl]carbamoyl}-5-(trifluoromethyl)benzoic acid], the IC50 under setting [1] was found to be 725 nM. In the case of `O=C(O)c1cc(C(F)(F)F)ccc1C(=O)Nc1ccc2c(n1)COCC2` [Example 2, 2-({5H,6H,8H-pyrano[3,4-b]pyridin-2-yl}carbamoyl)-5-(trifluoromethyl)benzoic acid], the IC50 by setting is: (0.35 nM [125I]-Neurotensin radioligand, read-out: hSortilin NTS binding IC50 (nM) [125I] neurotensin) 105 nM; under setting [1], 60 nM.
